Source: US20240024317A1, “CANCER TREATMENT USING BOSENTAN IN COMBINATION WITH A CHECKPOINT INHIBITOR” (Materia Therapeutics Inc., priority 2020, published 2024)

Experiments:
Assay type in all cases: in vivo, mice
K7M2 wt tumors [1] = experiment: Tumor growth in osteosarcoma model, ketotifen, doxorubicin, anti-PD-L1; details: for tumor growth: monotherapy
Experimental: (§1) A fibrosarcoma syngeneic tumor model was generated by subcutaneous implantation of 2.5×10^5 MCA205 cells in 50 μL of serum-free medium into the flank of 6-week old C57BL/6 female mice. A osteosarcoma syngeneic tumor model was generated by implanting K7M2 wt tumor chunks into the fat pad of 6-week old BALB/c female mice.
(§2) Mice bearing sarcoma tumors were pre-treated with 10 mg/kg daily ketotifen followed by three or four doses of doxorubicin and/or an immune checkpoint inhibitor anti-PD-L1 antibody. Mouse monoclonal anti-PD-L1 (B7-H1, clone 10F.9G2, BioXCell) was used. Doxorubicin hydrochloride was prepared as a ready-made solution of 2 mg/ml. Anti-PD-L1 antibody was administered at a final dose of 10 mg/kg and doxorubicin at 5 mg/kg.
(§3) Primary tumors were resected and stored when they reached an average size of 700 mm^3 on day 16 and mice were monitored for re-challenge experiments. Similarly, K7M2 wt tumors were pretreated with daily ketotifen 10 mg/kg or equal volume of diluent (control group) once the average tumor size reached 80 mm^3 (day 18) and continued until completion of neoadjuvant treatment. Doxorubicin and anti-PD-L1 combination treatment started when tumors reached an average size of 150 mm^3 (day 22) and repeated on day 25, 28 and 31. Study ended when tumors reached a mean volume of 550 mm 3 (day 33). Mice were sacrificed and tumors were collected for ex vivo analysis.

MCA205 tumors [2] = experiment: Tumor growth in fibrosarcoma model, ketotifen, doxorubicin, anti-PD-L1; details: for tumor growth: monotherapy
Experimental: as §1, §2
Mice bearing MCA205 tumors were pretreated with daily ketotifen 10 mg/kg or equal volume of diluent (control group) once the average tumor size reached 40 mm^3, prior to the neoadjuvant treatment. Doxorubicin and anti-PD-L1 combination treatment initiated when tumors reached an average size of 150 mm^3 (day 7) and was administered as i.p. injections every three days (day 7, 10, and 13) for three doses. Daily ketotifen continued until completion of doxorubicin-anti-PD-L1 combination treatment.
as §3

MCA205 tumors [3] = experiment: Interstitial fluid pressure (IFP), wick-in-needle technique, ketotifen
Experimental: Interstitial fluid pressure (IFP) was measured in vivo using the “wick-in-needle” technique after mice were anesthetized with i.p. injection of Avertin and prior to tumor excision. Additional information regarding the wick-in-needle technique is described in Dong et al., Involvement of mast cell chymase in burn wound healing in hamsters 2013; 5:643-7 and Shankaran et al. IFNγ and lymphocytes prevent primary tumour development and shape tumour immunogenicity 2001; 410:1107-11, the contents of which are incorporated herein by reference in their entirety.

MCA205 tumors [4] = experiment: Contrast-enhanced ultrasound of vascular and functional perfusion, ketotifen; details: during ketotifen treatment
Experimental: (§4) Vascular perfusion and functional perfusion were measured simultaneously during the course of ketotifen treatment, using contrast-enhanced ultrasound in mice bearing MCA205 and mice bearing K7M2 wt tumors.

K7M2 wt tumors [5] = experiment: as above; details: during ketotifen treatment
Experimental: as §4

[6] = system: MCA205 fibrosarcoma tumors; experiment: Shear wave elastography of tumor elastic modulus, ketotifen
From the text: The mechanotherapeutic potential of ketotifen in reducing matrix stiffness was primarily assessed non-invasively and longitudinally using ultrasound elastography. Assessment of tumor elastic modulus was […] via shear wave elastography using a Philips EPIQ Elite Ultrasound scanner with an eL 18-4 linear array.

[7] = anti-PD-L1 (10 mg/kg) and/or doxorubicin (5 mg/kg) combined with 10 mg/kg daily ketotifen

Structure (SMILES)	tumor growth (K7M2 wt tumors [1])	tumor growth (MCA205 tumors [2])	IFP (MCA205 tumors [3]; 10 mg/kg dose of ketotifen compared with other doses)	IFP (MCA205 tumors [3]; all doses of ketotifen, daily for 7 days)	antitumor response (K7M2 wt tumors [1]; [7])	functional perfusion (MCA205 tumors [4])	vascular perfusion (MCA205 tumors [4])	functional perfusion (K7M2 wt tumors [5])	vascular perfusion (K7M2 wt tumors [5])	Young's modulus ([6]; 10 mg/kg ketotifen)	tissue stiffness (ultrasound elastography) ([6]; 10 mg/kg ketotifen compared with other doses)	antitumor response (MCA205 tumors [2]; [7])
COc1cccc2c1C(=O)c1c(O)c3c(c(O)c1C2=O)C[C@@](O)(C(=O)CO)C[C@@H]3O[C@H]1C[C@H](N)[C@H](O)[C@H](C)O1 [doxorubicin]	Neither anti-PD-L1 nor doxorubicin monotherapies significantly affected tumor growth	Neither anti-PD-L1 nor doxorubicin monotherapies significantly affected tumor growth	–	–	–	–	–	–	–	–	–	–
CN1CCC(=C2c3ccccc3CC(=O)c3sccc32)CC1 [ketotifen]	no antitumor effect	no antitumor effect	greatest effect	reduced the IFP	induced a significant antitumor response	significant increase	significant increase	significant increase	significant increase	20 kPa	reduced tissue stiffness the most	induced a significant antitumor response
